Consider eight compounds from patent US20250313572A1, “MACROCYCLIC MCL-1 INHIBITORS AND METHODS OF USE” (AbbVie Inc., priority 2017, published 2025).

Like-named read-outs stand apart in the source and are kept apart here.

Assay [1] relates to NCI-H929 human multiple myeloma tumor cell line. The assay can be described thus: NCI-H929 cell viability assay (CellTiter-Glo, 24 hours). In kind it is cell-based. For orientation: In ATP-based viability assays light output follows the ATP content of the culture.
In a further assay the target is GST-MCL-1 (Homo sapiens, UniProt Q07820). Description: TR-FRET MCL-1 binding assay (competition with probe F-Bak). The gist of the method: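 Test compounds, 11 three-fold dilutions from 25 μM final, incubated 2 hours at room temperature with GST-MCL-1, F-Bak probe and Tb-anti-GST antibody. TR-FRET read at 340/35 nm excitation with 520/525 and 495/510 nm emission. Run without human serum and with 10% HS.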
GST-MCL-1, sequence (Q07820 whole entry): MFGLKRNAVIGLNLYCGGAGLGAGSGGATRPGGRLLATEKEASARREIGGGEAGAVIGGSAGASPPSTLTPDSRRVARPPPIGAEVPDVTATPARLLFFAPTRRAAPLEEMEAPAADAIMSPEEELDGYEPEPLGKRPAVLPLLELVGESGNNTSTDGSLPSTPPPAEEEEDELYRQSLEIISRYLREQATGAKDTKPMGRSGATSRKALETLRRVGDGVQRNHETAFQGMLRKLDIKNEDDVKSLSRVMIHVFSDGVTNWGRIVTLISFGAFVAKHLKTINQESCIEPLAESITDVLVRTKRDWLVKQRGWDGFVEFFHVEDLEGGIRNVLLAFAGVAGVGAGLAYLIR
Background: In TR-FRET formats the signal depends on donor and acceptor labels being close together.

The subject of assay [2] is AMO-1 human multiple myeloma tumor cell line. Description: AMO-1 cell viability assay (CellTiter-Glo, 24 hours). In kind it is cell-based.
Where [3] appears, read: Homo sapiens, NCI-H929, 24 h, read-out: H929 Viability IC50 (μM, 10% FBS), 10% FBS, 24 hours of compound treatment.
Where [4] appears, read: MCL-1 Binding Ki (nM, 10% HS), in the presence of 10% HS (human serum).
Setting [5] is: without HS, read-out: MCL-1 Binding Ki.
Setting [6] is: Homo sapiens, AMO1, 24 h, read-out: AMO-1 Viability IC50 (μM, 10% FBS), 10% FBS, 24 hours of compound treatment.
[7] abbreviates: read-out: H929 Viability IC50 (μM, 10% FBS), 10% FBS, 24 hours of compound treatment.
Where [8] appears, read: read-out: AMO-1 Viability IC50 (μM, 10% FBS), 10% FBS, 24 hours of compound treatment.

`COCCOCCOCCOCC1(c2nccc(COc3ccc4cc3C[C@H](C(=O)O)Oc3ncnc5sc(-c6ccc(F)cc6)c(c35)-c3c(C)c(Cl)c(c(Cl)c3C)O[C@H](CN3CCN(C)CC3)CO4)n2)CCC1` [Example 45, (7R,16R)-19,23-dichloro-1-(4-fluorophenyl)-20,22-dimethyl-16-[(4-methylpiperazin-1-yl)methyl]-10-({2-[1-(2,5,8,11-tetraoxadodecan-1-yl)cyclobutyl]pyrimidin-4-yl}methoxy)-7,8,15,16-tetrahydro-18,21-etheno-13,9-(metheno)-6,14,17-trioxa-2-thia-3,5-diazacyclononadeca[1,2,3-cd]indene-7-carboxylic Acid]: the IC50 (usually the concentration that inhibits the measured activity by half) in assay [1] (setting [3]) was 0.000598 µM; in assay [2] (setting [6]) it was 0.000461 µM. Moreover, the Ki – broadly, the dissociation constant of the complex between target and ligand, obtained from inhibition or displacement – came out at 0.343 nM at GST-MCL-1 (setting [4]) and 0.094 nM at GST-MCL-1 (setting [5]).

For the compound `Cc1c(Cl)c2c(Cl)c(C)c1-c1c(-c3ccc(F)cc3)sc3ncnc(c13)O[C@@H](C(=O)O)Cc1cc(ccc1OCc1ccnc(C3CCS(=O)(=O)C3)n1)OC[C@@H](CN1CCN(C)CC1)O2` (stereo partly drawn) [Example 73, (7R,16R)-19,23-dichloro-10-{[2-(1,1-dioxo-1λ^6-thiolan-3-yl)pyrimidin-4-yl]methoxy}-1-(4-fluorophenyl)-20,22-dimethyl-16-[(4-methylpiperazin-1-yl)methyl]-7,8,15,16-tetrahydro-18,21-etheno-9,13-(metheno)-6,14,17-trioxa-2-thia-3,5-diazacyclononadeca[1,2,3-cd]indene-7-carboxylic Acid], the IC50 amounted to 0.00556 µM in assay [1] (setting [3]) and 0.00262 µM in assay [2] (setting [6]). In addition, the Ki on GST-MCL-1 (setting [4]) was found to be 0.208 nM; at GST-MCL-1 (setting [5]) it was 0.037 nM.

For the compound `Cc1c(Cl)c2c(Cl)c(C)c1-c1c(-c3ccc(F)cc3)sc3ncnc(c13)O[C@@H](C(=O)O)Cc1cc(ccc1OCc1ccnc(N3C[C@@H]4[C@H](C3)[C@H]4C(=O)O)n1)OC[C@@H](CN1CCN(C)CC1)O2` [Example 36, (7R,16R)-10-({2-[(1R,5S,6r)-6-carboxy-3-azabicyclo[3,1,0]hexan-3-yl]pyrimidin-4-yl}methoxy)-19,23-dichloro-1-(4-fluorophenyl)-20,22-dimethyl-16-[(4-methylpiperazin-1-yl)methyl]-7,8,15,16-tetrahydro-18,21-etheno-13,9-(metheno)-6,14,17-trioxa-2-thia-3,5-diazacyclononadeca[1,2,3-cd]indene-7-carboxylic Acid], the IC50 is 0.653 µM in assay [1] (setting [3]) and 0.32 µM in assay [2] (setting [6]). The Ki at GST-MCL-1 (setting [4]) stood at 1.16 nM; on GST-MCL-1 (setting [5]), 0.144 nM.

With `COCCOCCOCCOCCOCCOCC1(F)CC=C(c2nccc(COc3ccc4cc3C[C@H](C(=O)O)Oc3ncnc5sc(-c6ccc(F)cc6)c(c35)-c3c(C)c(Cl)c(c(Cl)c3C)O[C@H](CN3CCN(C)CC3)CO4)n2)CC1` (single isomer, unassigned) [Example 100, (7R,16R)-19,23-dichloro-10-({2-[(4R*)-4-fluoro-4-(2,5,8,11,14,17-hexaoxaoctadecan-1-yl)cyclohex-1-en-1-yl]pyrimidin-4-yl}methoxy)-1-(4-fluorophenyl)-20,22-dimethyl-16-[(4-methylpiperazin-1-yl)methyl]-7,8,15,16-tetrahydro-18,21-etheno-13,9-(metheno)-6,14,17-trioxa-2-thia-3,5-diazacyclononadeca[1,2,3-cd]indene-7-carboxylic Acid], the IC50 amounted to 0.000547 µM in assay [1] (setting [7]) and 0.00033 µM in assay [2] (setting [8]). For the same compound, the Ki on GST-MCL-1 (setting [4]) was 0.176 nM; on GST-MCL-1 (setting [5]) it was 0.017 nM.

Take `Cc1c(Cl)c2c(Cl)c(C)c1-c1c(-c3ccc(F)cc3)sc3ncnc(c13)O[C@@H](C(=O)O)Cc1cc(ccc1OCc1ccnc(C3(COCCOCCOC[C@H]4COCCO4)CCC3)n1)OC[C@@H](CN1CCN(C)CC1)O2` [Example 72, (7R,16R)-19,23-dichloro-10-{[2-(1-{[2-(2-{[(2R)-1,4-dioxan-2-yl]methoxy}ethoxy)ethoxy]methyl}cyclobutyl)pyrimidin-4-yl]methoxy}-1-(4-fluorophenyl)-20,22-dimethyl-16-[(4-methylpiperazin-1-yl)methyl]-7,8,15,16-tetrahydro-18,21-etheno-13,9-(metheno)-6,14,17-trioxa-2-thia-3,5-diazacyclononadeca[1,2,3-cd]indene-7-carboxylic Acid]: the values for the IC50 in assay [1] (setting [3]) and in assay [2] (setting [6]) were 0.000743 µM and 0.000331 µM, respectively. Besides, the Ki on GST-MCL-1 (setting [4]) came out at 0.184 nM; at GST-MCL-1 (setting [5]), 0.064 nM.

Turning to `CO[C@@H]1CO[C@H]2[C@@H]1OC[C@H]2OCCOCCOc1nccc(COc2ccc3cc2C[C@H](C(=O)O)Oc2ncnc4sc(-c5ccc(F)cc5)c(c24)-c2c(C)c(Cl)c(c(Cl)c2C)O[C@H](CN2CCN(C)CC2)CO3)n1` [Example 133, (7R,16R)-19,23-dichloro-1-(4-fluorophenyl)-10-({2-[2-(2-{[(3R,3aR,6R,6aR)-6-methoxyhexahydrofuro[3,2-b]furan-3-yl]oxy}ethoxy)ethoxy]pyrimidin-4-yl}methoxy)-20,22-dimethyl-16-[(4-methylpiperazin-1-yl)methyl]-7,8,15,16-tetrahydro-18,21-etheno-13,9-(metheno)-6,14,17-trioxa-2-thia-3,5-diazacyclononadeca[1,2,3-cd]indene-7-carboxylic Acid], the IC50 in assay [1] (setting [3]) turned out to be 0.00879 µM; in assay [2] (setting [6]) it was 0.00324 µM. The Ki at GST-MCL-1 (setting [4]) was 0.168 nM; on GST-MCL-1 (setting [5]), 0.044 nM.

For the compound `Cc1c(Cl)c2c(Cl)c(C)c1-c1c(-c3ccc(F)cc3)sc3ncnc(c13)O[C@@H](C(=O)O)Cc1cc(ccc1OCc1ccnc(-c3ccc(S(=O)(=O)N4CCOCC4)cc3)n1)OC[C@@H](CN1CCN(C)CC1)O2` [Example 145, (7R,16R)-19,23-dichloro-1-(4-fluorophenyl)-20,22-dimethyl-16-[(4-methylpiperazin-1-yl)methyl]-10-({2-[4-(morpholine-4-sulfonyl)phenyl]pyrimidin-4-yl}methoxy)-7,8,15,16-tetrahydro-18,21-etheno-13,9-(metheno)-6,14,17-trioxa-2-thia-3,5-diazacyclononadeca[1,2,3-cd]indene-7-carboxylic Acid], the IC50 was found to be 0.000973 µM in assay [1] (setting [3]) and 0.000407 µM in assay [2] (setting [6]). In addition, the Ki on GST-MCL-1 (setting [4]) is 0.399 nM; on GST-MCL-1 (setting [5]), 0.081 nM.

For the compound `COCCOCCOCCOCC1(F)CC=C(c2nccc(COc3ccc4cc3C[C@H](C(=O)O)Oc3ncnc5sc(-c6ccc(F)cc6)c(c35)-c3c(C)c(Cl)c(c(Cl)c3C)O[C@H](CN3CCN(C)CC3)CO4)n2)CC1` (single isomer, unassigned) [Example 111, (7R,16R)-19,23-dichloro-1-(4-fluorophenyl)-10-({2-[(4R*)-4-fluoro-4-(2,5,8,11-tetraoxadodecan-1-yl)cyclohex-1-en-1-yl]pyrimidin-4-yl}methoxy)-20,22-dimethyl-16-[(4-methylpiperazin-1-yl)methyl]-7,8,15,16-tetrahydro-18,21-etheno-13,9-(metheno)-6,14,17-trioxa-2-thia-3,5-diazacyclononadeca[1,2,3-cd]indene-7-carboxylic Acid], the IC50 came to 0.000298 µM in assay [1] (setting [7]) and 0.000161 µM in assay [2] (setting [8]). For the same compound, the Ki amounted to 0.101 nM on GST-MCL-1 (setting [4]) and 0.014 nM at GST-MCL-1 (setting [5]).
